Measured values: patent US20240226126A1, “COMPOSITIONS FOR TREATMENT OF PSORIASIS” (The Board of Trustees of the Leland Stanford Junior …, priority 2021, published 2024)
Entries after “also recorded” stand apart in the source; their conditions may differ. Like-named read-outs stand apart in the source and are kept apart here.

How the values were obtained:
[1] = test system: primary psoriasis keratinocytes (PSOKC); test: MTT proliferation assay, primary psoriasis keratinocytes; format: cell-based, human; settings: for proliferation in PSOKCs: 10 μM
Method: MTT assays. 10000 third-passage adult keratinocytes per well, or 25000 for IC50 curves, were seeded on a collagen-coated 96 well plate, and incubated with 50/50 (Medium 154 and Keratinocyte—SFM medium, Invitrogen with Human Keratinocytes Growth Supplement, S-001-5, Invitrogen, and Medium 154 supplement M-154-6 500, Invitrogen) with 1% antibiotic-antimycotic (30-004-CI, Mediatech Inc) for 48 h. 10 ul MTT reagent (MTT proliferation assay, ATCC, Manassas, US) was added for 4 h, 100 ul detergent was added to each well for 4 hours, and absorbance read at 570 nm (Spectramax M5, Molecular Devices, US), normalized to cell-free control absorbance.
Small molecule inhibition. All small molecules were diluted into concentrated stock solutions (all except YM-244769 were made into 50 mM stock solutions) in DMSO, and stored in aliquots at −20 C. Aliquots were thawed, then diluted to a 1000× stock concentration, then added to media so that final DMSO concentration is 0.1%. All in vitro studies entailing small molecule inhibition were accessed over 24 hour incubation period.
Statistical analysis. Microrarray data was analyzed using the affy package from Bioconductor on R statistical software package. Other statistical analysis was performed using Graphpad Prism 7.03, and statistical tests (unpaired t-tests with Welch correction, paired t-test, Mann-Whitney unpaired test, and linear regression analysis with goodness of fit) and sample sizes are outlined in each figure legend. Components of signature for goodness of fit by linear regression analysis were extrapolated from the benzamil rank aggregation algorithm All error bars denotes standard error of the mean. For IC50 calculations, MTT data absorbance values were calculated for percent change from the 0.1% DMSO vehicle condition. A non-linear fitted curve [log (inhibitor) vs response (three parameters)] in GraphPad Prism 7 was used to determine IC50 values. For mouse and xenograft experiments, ad hoc power calculations were based on prior phenotypic characterization of these models. Transgenic mice were randomized from same litters when possible, or based on similar phenotypic disease severity, and all experiments were run in triplicates or more. Sample size of xenografts mice studies were based on patient sample availability and a predicted graft take rate of 80%. For all comparisons, p values of less than 0.05 were considered statistically significant. All tests were two-tailed unless specified in figure legends.
(§1) Small molecule inhibitors. 10 uM benzamil hydrochloride hydrate (Sigma B2417), 10 uM amiloride hydrochloride (Tocris 890) 10 uM zoniporide dihydrochloride (Tocis 2727), 10 nM YM-244769 (Tocris 4544), 10 uM SEA 0400 2-[4-[(2,5-944 difluorophenyl)methoxy]phenoxy]-5-ethoxyaniline) (Tocris 6164), 10 uM triamterene (Sigma-Aldrich T4143).

[2] = test system: V12KC (primary keratinocytes transduced with V12 Rac1); test: Proliferation of V12 Rac1 transduced primary keratinocytes vs LacZ control; format: cell-based; settings: Homo sapiens, Keratinocyte
[3] = test system: Human Primary keratinocytes; test: Cytokine response of TNF-α/IL-17 stimulated keratinocytes (Luminex); format: cell-based; settings: TNF-α 10 ng/ml and IL-17 10 ng/ml, 48 hours
Method: Human Primary keratinocytes were purchased from Thermo Fisher. Keratinocytes were cultured in medium 154 supplemented with HKGS, split using TrypLE and neutralized using DMEM supplemented with 10% FBS. Cells were split to keep 20-80% confluency and not passaged above passage 5. Keratinocytes were detached using TrypLE Express, Trypsin Neutralizer solution was added and the detached cells transferred to a sterile conical tube. Cells were resuspended in 15 ml medium with HKGS supplemented (cat no S-001-K) but without hydrocortisone. The cells were pipetted up and down with a 10 ml pipette to ensure a homogeneous cell suspension.
Human primary keratinocytes detached as described above, were resuspended in PBS at 1×10^6 cells/ml and filtered through a 35 μm cell strainer. Cells were stained with CellTrace Violet at 5 μM for 20 minutes at 37° C., 5% CO2. After staining, DMEM supplemented with 10% FBS was added to stop staining and cells was incubated at 37° C., 5% CO2 for 5 minutes. After incubation, cells were washed with PBS 1× and resuspended in Medium 154 supplemented with HGKS without hydrocortisone at 6×10^5 cells/ml and 200 μl was added to wells in a 96-well flat bottom cell culture plate. Cells were incubated overnight at 37° C., 5% CO2/95% air. […]
Supernatants were analyzed for cytokines IL-6, IL-8, and CXCL1 using Luminex. […] Samples were analyzed on a Bio-Rad Luminex 200 analyzer. […]

[4] = test system: Rac1V12 transgenic mice; test: Rac1V12 transgenic mouse model of psoriasis; format: in vivo
Method: Transgenic mice and mice for xenografting Rac1V12-transgenic mice were generated as previously described. For xenografting, NOD/SCID mice were used (NOD.CB17-PrkdcSCID/J mice; stock 001303; The Jackson Laboratory).
Topical formulation and administration. A rudimentary preparation of benzamil was tested using benzamil (6 mg/ml, benzamil, Sigma) in 100% ethanol. This solution was then topically applied through submerged and air-drying tails of mice under anesthesia, once daily for 15 days. Similarly, benzamil was suspended in water (2 mg/ml), then mixed into Vaseline, vortexed and centrifuged until a clear solution was obtained. A final formulation of benzamil is described in supplementary material and methods. For intraperitoneal injections, benzamil was dissolved at 2 mg/ml in water, and 0.7, 1.4 or 2.1 mg/kg was injected IP daily. For osmotic pump injections, Alzet osmotic pumps were used, (Alzet minipump 1002). Pumps were filled with 100 ul of benzamil in ethanol under sterile conditions, at a final dose of 2 mg/kg/day, and subcutaneous, inter-scapular implantations were performed under anesthesia. Pumps were replaced once for a total of 2×14 days treatment period.
Topical formulation of benzamil. A labrasol (88%) based formulation of benzamil was generated containing benzamil (1%, w/w), span-20 (1%) and cetyltrimethylammonium bromide (CTAB) (10%). Constituents were dissolved in ethyl alcohol, mixed well using vortex and sonication at 37° C. until a clear solution was obtained. Ethyl alcohol was evaporated in a Speedvac. The residue was suspended in Labrasol and homogenized to obtain the final formulation.
For a final formulation of benzamil (for use on human reconstructed skin), 52 ml water, 5.2 ml glycerin, 9.7 ml rice bran oil, 4 ml caprylic aid triglyceride, 6.2 g cetearyl alcohol, 8.6 g 50/50 mixture of cetearyl glucoside and cetearyl alcohol and 3.5 g cocoa butter was heated to 75° C. until dissolved, removed from heat, mixed using Cimarec 2 magnetic stir. At 45° C. […]

[5] = test system: PSOKCs; test: Intracellular pH assay (pHrodo red); format: cell-based, human; settings: PSOKCs / primary keratinocytes overexpressing Rac1, 24 h, 10 uM; listed as Zoniporide
Method: Intracellular pH assays 25,000 were seeded per well of 96-well plate and allowed cells to settle and recover for 24 hrs. Small molecules or 0.1% DMSO vehicle control was added to culture media for 24 hours (n=6-8). Cells were washed once with 1× Live Cell Imaging Solution (LCIS) (ThermoFisher A14291DJ), and then incubated with pHrodo red (ThermoFisher P35372), PowerLoad (ThermoFisher P35372), in LCIS with added 1:5000 Hoechst (Life Technologies) for 30 min at 37 C 5% CO2 with corresponding small molecule added at same concentration used for 24 hour incubation.
as §1
Intracellular pH assays and standard curves. Cells were also washed 3 times with 1×LCIS with the last wash of 100 uL kept on cells. For generation of pH standard curve, additional wells (n=6-8) were treated as described with an addition of 0.1% DMSO vehicle for 24 hours. […] The 96-well plate was then read on a fluorescence microplate reader (Spectramax M5, Molecular Devices) with excitation/emission of […] and 361/497. […]

Molecule: NC(=NCc1ccccc1)NC(=O)c1nc(Cl)c(N)nc1N [benzamil]
- IC50 ([1]; cells from 5 psoriasis donors, read-out: IC50 on proliferation): ~1000 nM
- IC50 ([1]; range across donors, read-out: IC50 range in five psoriasis donor primary keratinocyte cultures): 0.1 to 4600 nM
- IC50 [2]: 990 nM

Molecule: Cc1cc(I)ccc1Nc1c(C(=O)NOCC2CC2)cc(F)c(F)c1F [PD198306]
- concentration with decrease of CXCL1 [3]: 100 nM

Molecule: Nc1nc(N)c2nc(-c3ccccc3)c(N)nc2n1 [triamterene]
- proliferation in PSOKCs [1]: not achieved by amiloride or triamterene; also recorded: not amiloride or triamterene reduced proliferation

Molecule: N=C(N)NC(=O)c1nc(Cl)c(N)nc1N [amiloride]
- proliferation in PSOKCs [1]: not achieved by amiloride or triamterene; also recorded: not amiloride or triamterene reduced proliferation
- psoriasiform hyperplasia ([4]; systemic): failed to demonstrate any effect

Molecule: N=C(N)NC(=O)c1cnn(-c2cccc3ncccc23)c1C1CC1 [zoniporide]
- proliferation in PSOKCs [1]: recapitulated benzamil's significant capacity to reduce proliferation
- proliferation in PSOKCs ([1]; listed as Zoniporide): reduced proliferation in PSOKCs to levels observed by Benzamil
- intracellular pH [5]: significantly reduced intracellular pH

Molecule: C=C(CC)C(=O)c1ccc(OCC(=O)O)c(Cl)c1Cl [Ethacrynic acid]
- concentration with decrease of IL-8 [3]: 10 µM

Molecule: C[C@H]1C[C@H]2[C@@H]3CCC4=CC(=O)C=C[C@]4(C)[C@@]3(F)[C@@H](O)C[C@]2(C)[C@@]1(O)C(=O)CCl [clobetasol]
- epidermal thickness ([4]; topical, compared to vehicle): reduction in epidermal thickness

Molecule: Bromocriptine
- signs of improvement (scaling, ulceration, erythema, epidermal thickening) ([4]; intraperitoneal 10 mg/kg every other day, 20 treatments, vs baseline): improved after treatment
